Source: patent US7598389B2, “Silylated carboxamides” (Bayer Cropscience AG, priority 2003, dated 2009)

Test system: Sphaerotheca fuliginea
Assay: Sphaerotheca test (cucumber)/protective
Assay type: in vivo
Settings: cucumber plants, protective; application rate 750 g/ha; evaluation 7 days after inoculation
Method: Sphaerotheca Test (Cucumber)/Protective
(§1) To produce a suitable preparation of active compound, 1 part by weight of active compound is mixed with the stated amounts of solvent and emulsifier, and the concentrate is diluted with water to the desired concentration.
To test for protective activity, young cucumber plants are sprayed with the preparation of active compound at the stated application rate. One day after the treatment, the plants are inoculated with a spore suspension of Sphaerotheca fuliginea. The plants are then placed in a greenhouse at 70% relative atmospheric humidity and a temperature of 23° C.
Evaluation is carried out 7 days after the inoculation. 0% means an efficacy which corresponds to that of the control, whereas an efficacy of 100% means that no infection is observed.

| SMILES | Efficacy in % [%] |
| --- | --- |
| CC(C[Si](C)(C)C)c1ccccc1NC(=O)c1ccccc1I (stereo not shown) [drawing 66] | 100 |
| CC(C[Si](C)(C)C)c1ccccc1NC(=O)c1ccccc1C(F)(F)F (stereo not shown) [drawing 65] | 100 |
| C[Si](C)(C)CCc1ccccc1NC(=O)c1ccccc1Br [drawing 67] | 100 |

Test system: Venturia inaequalis
Assay: Venturia test (apple)/protective
Assay type: in vivo
Settings: 240 h, apple plants, protective, application rate 100 g/ha, evaluation 10 days after inoculation, read-out: Efficacy in %
Method: Venturia Test (Apple)/Protective
as §1
(§2) To test for protective activity, young plants are sprayed with the preparation of active compound at the stated application rate. After the spray coating has dried on, the plants are inoculated with an aqueous conidia suspension of the apple pathogen Venturia inaequalis and then remain in an incubation cabin at about 20° C. and 100% relative atmospheric humidity for one day.
The plants are then placed in a greenhouse at about 21° C. and a relative atmospheric humidity of about 90%.
Evaluation is carried out 10 days after the inoculation. 0% means an efficacy which corresponds to that of the control, whereas an efficacy of 100% means that no infection is observed.

| SMILES | pest or weed control at 100 g/ha [%] |
| --- | --- |
| Cn1cc(C(=O)Nc2ccccc2CC[Si](C)(C)C)c(I)n1 [drawing 59] | 100 |
| Cc1ccsc1C(=O)Nc1ccccc1CC[Si](C)(C)C [drawing 60] | 100 |
| CC(C[Si](C)(C)C)c1ccccc1NC(=O)c1sccc1I (stereo not shown) [drawing 63] | 100 |
| CC(C[Si](C)(C)C)c1ccccc1NC(=O)c1occc1I (stereo not shown) [drawing 62] | 100 |
| CC(C[Si](C)(C)C)c1ccccc1NC(=O)c1ccccc1C(F)(F)F (stereo not shown) [drawing 54] | 99 |
| C[Si](C)(C)CCc1ccccc1NC(=O)c1ccccc1Br [drawing 57] | 87 |
| C[Si](C)(C)CCc1cc(F)ccc1NC(=O)c1sccc1I [drawing 61] | 100 |
| CC(C[Si](C)(C)C)c1ccccc1NC(=O)c1cn(C)nc1I (stereo not shown) [drawing 64] | 99 |
| C[Si](C)(C)CCc1ccccc1NC(=O)c1ccccc1C(F)(F)F [drawing 56] | 84 |
| Cn1nc(C(F)(F)F)c(C(=O)Nc2ccccc2CC[Si](C)(C)C)c1F [drawing 58] | 100 |
| CC(C[Si](C)(C)C)c1ccccc1NC(=O)c1ccccc1I (stereo not shown) [drawing 55] | 100 |

Test system: Puccinia recondite
Assay: Puccinia test (wheat)/protective
Assay type: in vivo
Settings: 240 h, wheat plants, protective, application rate 500 g/ha, evaluation ten days after inoculation, read-out: Efficacy in %
Method: Puccinia Test (Wheat)/Protective
To produce a suitable preparation of active compound, 1 part by weight of active compound is mixed with the stated amount of solvent and emulsifier, and the concentrate is diluted with water to the desired concentration.
as §2, with “sprayed” for “inoculated”, “a” for “an aqueous”, “Puccinia recondite. The plants” for “the apple pathogen Venturia inaequalis and then”, “at” for “at about”, “48 hours.” for “one day.”
The plants are then placed in a greenhouse at a temperature of about 20° C. and a relative atmospheric humidity of 80% to promote the development of rust pustules.
Evaluation is carried out ten days after the inoculation. 0% means an efficacy which corresponds to that of the control, whereas an efficacy of 100% means that no infection is observed.

| SMILES | pest or weed control at 500 g/ha [%] |
| --- | --- |
| CC(C[Si](C)(C)C)c1ccccc1NC(=O)c1cn(C)nc1I (stereo not shown) [drawing 80] | 100 |
| Cn1cc(C(=O)Nc2ccccc2CC[Si](C)(C)C)c(I)n1 [drawing 72] | 100 |
| C[Si](C)(C)CCc1ccccc1NC(=O)c1sccc1I [drawing 75] | 100 |
| C[Si](C)(C)CCc1cc(F)ccc1NC(=O)c1sccc1I [drawing 76] | 100 |
| CC(C[Si](C)(C)C)c1ccccc1NC(=O)c1sccc1I (stereo not shown) [drawing 78] | 100 |
| Cc1occc1C(=O)Nc1ccccc1CC[Si](C)(C)C [drawing 73] | 100 |
| CC(C[Si](C)(C)C)c1ccccc1NC(=O)c1ccccc1Br (stereo not shown) | 100 |
| C[Si](C)(C)CCc1ccccc1NC(=O)c1ccccc1Br [drawing 71] | 100 |
| Cc1ccsc1C(=O)Nc1ccccc1CC[Si](C)(C)C [drawing 74] | 100 |
| C[Si](C)(C)CCc1ccccc1NC(=O)c1ccccc1C(F)(F)F [drawing 68] | 93 |
| CC(C[Si](C)(C)C)c1ccccc1NC(=O)c1occc1I (stereo not shown) [drawing 77] | 100 |
| C[Si](C)(C)CCc1ccccc1NC(=O)c1ccccc1I [drawing 70] | 100 |
| CC(C[Si](C)(C)C)c1ccccc1NC(=O)c1ccccc1I (stereo not shown) [drawing 69] | 100 |

Test system: not listed separately
Assay: log P determination by HPLC on reverse-phase column (EEC Directive 79/831 Annex V.A8)
Assay type: physicochemical
Settings: Table 1, C 18 reverse-phase column, 43° C., acidic range (pH 2.3)
Method: The given log P values were determined in accordance with EEC Directive 79/831 Annex V.A8 by HPLC (High Performance Liquid Chromatography) on a reverse-phase column (C 18). Temperature: 43° C.
Mobile phases for the determination in the acidic range (pH 2.3): 0.1% aqueous phosphoric acid, acetonitrile; linear gradient from 10% acetonitrile to 90% acetonitrile.
Calibration was carried out using unbranched alkan-2-ones (3 to 16 carbon atoms) with known log P values (determination of the log P values by the retention times using linear interpolation between two successive alkanones).

| SMILES | logP |
| --- | --- |
| C[Si](C)(C)C#Cc1ccccc1NC(=O)c1ccccc1Br [Example 21] | 4.93 |
| CC(C[Si](C)(C)C)c1ccccc1NC(=O)c1occc1I (racemic) [Example 11] | 4.73 |
| CC(C[Si](C)(C)C)c1ccccc1NC(=O)c1ccccc1Br (racemic) [Example 7] | 4.58 |
| C[Si](C)(C)CCc1ccccc1NC(=O)c1ccccc1Cl [Example 5] | 4.29 |
| C[Si](C)(C)CCc1cc(F)ccc1NC(=O)c1sccc1I [Example 25] | 4.79 |
| CC(C[Si](C)(C)C)c1ccccc1NC(=O)c1cn(C)nc1I (racemic) [Example 15] | 3.94 |
| CC(C[Si](C)(C)C)c1ccccc1NC(=O)c1ccccc1I (racemic) [Example 2] | 4.67 |
| C[Si](C)(C)C#Cc1ccccc1NC(=O)c1ccccc1C(F)(F)F [Example 18] | 4.78 |
| CC(C[Si](C)(C)C)c1ccccc1NC(=O)c1ccccc1C(F)(F)F (racemic) [Example 3] | 4.63 |
| Cn1cc(C(=O)Nc2ccccc2CC[Si](C)(C)C)c(Cl)n1 [Example 14] | 3.89 |
| Cn1cc(C(=O)Nc2ccccc2CC[Si](C)(C)C)c(I)n1 [Example 8] | 3.68 |
| CC(C[Si](C)(C)C)c1ccccc1NC(=O)c1sccc1I (racemic) [Example 12] | 5.05 |
| Cn1cc(C(=O)Nc2ccccc2CC[Si](C)(C)C)c(C(Cl)Cl)n1 [Example 9] | 3.95 |
| Cc1occc1C(=O)Nc1ccccc1CC[Si](C)(C)C [Example 16] | 4.03 |
| C[Si](C)(C)CCc1ccccc1NC(=O)c1ccccc1C(F)(F)F [Example 6] | 4.37 |
| C[Si](C)(C)C#Cc1ccccc1NC(=O)c1ccccc1I [Example 19] | 4.97 |
| C[Si](C)(C)CCc1ccccc1NC(=O)c1ccccc1I [Example 4] | 4.40 |
| CC(C[Si](C)(C)C)c1cc(F)ccc1NC(=O)c1ccccc1I (racemic) [Example 23] | 4.64 |
| C[Si](C)(C)CCc1ccccc1NC(=O)c1sccc1I [Example 24] | 4.85 |
| Cc1occc1C(=O)Nc1ccccc1C(C)C[Si](C)(C)C (racemic) [Example 17] | 4.33 |
| C[Si](C)(C)C#Cc1ccccc1NC(=O)c1ccccc1Cl [Example 20] | 4.96 |
| CC(C[Si](C)(C)C)c1cc(F)ccc1NC(=O)c1ccccc1C(F)(F)F (racemic) [Example 22] | 4.61 |
| Cn1nc(C(F)(F)F)c(C(=O)Nc2ccccc2CC[Si](C)(C)C)c1F [Example 10] | 4.19 |
| C[Si](C)(C)CCc1cc(F)ccc1NC(=O)c1ccccc1C(F)(F)F [Example 26] | 4.39 |

Same assay, conditions: pH 2.3, C 18 reverse-phase column, 43° C.

| SMILES | chromatographic logP |
| --- | --- |
| C[Si](C)(C)C#Cc1ccccc1[N+](=O)[O-] [trimethyl-(2-nitrophenyl-ethynyl)silane] | 4.12 |
| C[Si](C)(C)CCc1ccccc1NC(=O)c1ccccc1Br [Example 1, 2-bromo-N-[2-(2-trimethylsilyl-ethyl)phenyl]benzamide] | 4.32 |
| C[Si](C)(C)CCc1ccccc1N [Example (III-2), 2-(2-trimethylsilylethyl)phenylamine] | 2.58 |
| CC(C[Si](C)(C)C)c1ccccc1N (stereo not shown) [Example (III-1), 2-(1-methyl-2-trimethylsilylethyl)phenylamine] | 3.05 |
